Assay results reported in ChEMBL document CHEMBL2007661, “Compounds: GSK PKIS; Assays: UNC Frye lab” (2012).
“And” between values parts separate entries of the source, which are not always exact repeats. Identical values can stand only once.

Tests used:
[1] = molecular target: T1, Inhibitor of nuclear factor kappa-B kinase subunit epsilon (Homo sapiens) (UniProt Q14164); conditions: at 1 µM
T1 sequence (whole entry): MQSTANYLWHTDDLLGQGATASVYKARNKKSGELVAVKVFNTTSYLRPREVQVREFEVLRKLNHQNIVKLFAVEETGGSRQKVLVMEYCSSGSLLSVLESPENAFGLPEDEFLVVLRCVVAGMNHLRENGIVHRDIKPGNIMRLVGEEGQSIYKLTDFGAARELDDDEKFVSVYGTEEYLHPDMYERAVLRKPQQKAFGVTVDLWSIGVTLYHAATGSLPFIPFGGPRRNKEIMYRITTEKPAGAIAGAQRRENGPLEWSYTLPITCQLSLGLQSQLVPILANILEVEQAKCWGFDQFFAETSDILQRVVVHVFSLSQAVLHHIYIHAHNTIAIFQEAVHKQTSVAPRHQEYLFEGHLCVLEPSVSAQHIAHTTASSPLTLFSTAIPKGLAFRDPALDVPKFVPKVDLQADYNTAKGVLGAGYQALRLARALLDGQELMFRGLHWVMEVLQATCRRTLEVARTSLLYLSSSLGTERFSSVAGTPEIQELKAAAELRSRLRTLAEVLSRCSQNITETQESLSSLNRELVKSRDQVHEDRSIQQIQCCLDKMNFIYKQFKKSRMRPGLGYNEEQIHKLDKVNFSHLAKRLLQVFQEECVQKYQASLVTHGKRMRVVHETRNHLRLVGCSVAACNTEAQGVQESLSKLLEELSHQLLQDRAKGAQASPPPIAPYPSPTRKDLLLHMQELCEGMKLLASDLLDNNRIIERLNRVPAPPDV

[2] = molecular target: T2, Inhibitor of nuclear factor kappa-B kinase subunit beta (Homo sapiens) (UniProt O14920); conditions: at 1 µM
T2 sequence (whole entry): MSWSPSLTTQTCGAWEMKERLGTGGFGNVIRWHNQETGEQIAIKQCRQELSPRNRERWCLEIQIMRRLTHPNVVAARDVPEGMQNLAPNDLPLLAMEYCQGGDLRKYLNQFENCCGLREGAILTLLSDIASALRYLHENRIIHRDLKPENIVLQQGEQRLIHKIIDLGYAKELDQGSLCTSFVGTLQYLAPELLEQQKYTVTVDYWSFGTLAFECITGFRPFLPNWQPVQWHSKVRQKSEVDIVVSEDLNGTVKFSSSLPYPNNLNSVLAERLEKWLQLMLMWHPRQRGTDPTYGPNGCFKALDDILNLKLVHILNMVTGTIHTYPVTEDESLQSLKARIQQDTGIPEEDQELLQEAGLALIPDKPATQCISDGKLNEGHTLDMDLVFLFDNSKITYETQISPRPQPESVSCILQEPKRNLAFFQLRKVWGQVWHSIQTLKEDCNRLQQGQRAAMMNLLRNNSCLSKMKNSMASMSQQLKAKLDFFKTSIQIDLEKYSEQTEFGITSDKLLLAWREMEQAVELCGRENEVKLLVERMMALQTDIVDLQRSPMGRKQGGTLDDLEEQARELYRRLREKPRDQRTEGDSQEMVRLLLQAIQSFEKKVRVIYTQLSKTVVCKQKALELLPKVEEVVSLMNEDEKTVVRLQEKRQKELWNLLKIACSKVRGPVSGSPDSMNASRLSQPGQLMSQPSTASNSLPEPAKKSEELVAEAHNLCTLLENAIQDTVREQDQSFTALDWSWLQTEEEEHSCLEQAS

[3] = molecular target: T3, Tyrosine-protein kinase Mer (Homo sapiens) (UniProt Q12866); conditions: at 10 µM
T3 sequence (whole entry): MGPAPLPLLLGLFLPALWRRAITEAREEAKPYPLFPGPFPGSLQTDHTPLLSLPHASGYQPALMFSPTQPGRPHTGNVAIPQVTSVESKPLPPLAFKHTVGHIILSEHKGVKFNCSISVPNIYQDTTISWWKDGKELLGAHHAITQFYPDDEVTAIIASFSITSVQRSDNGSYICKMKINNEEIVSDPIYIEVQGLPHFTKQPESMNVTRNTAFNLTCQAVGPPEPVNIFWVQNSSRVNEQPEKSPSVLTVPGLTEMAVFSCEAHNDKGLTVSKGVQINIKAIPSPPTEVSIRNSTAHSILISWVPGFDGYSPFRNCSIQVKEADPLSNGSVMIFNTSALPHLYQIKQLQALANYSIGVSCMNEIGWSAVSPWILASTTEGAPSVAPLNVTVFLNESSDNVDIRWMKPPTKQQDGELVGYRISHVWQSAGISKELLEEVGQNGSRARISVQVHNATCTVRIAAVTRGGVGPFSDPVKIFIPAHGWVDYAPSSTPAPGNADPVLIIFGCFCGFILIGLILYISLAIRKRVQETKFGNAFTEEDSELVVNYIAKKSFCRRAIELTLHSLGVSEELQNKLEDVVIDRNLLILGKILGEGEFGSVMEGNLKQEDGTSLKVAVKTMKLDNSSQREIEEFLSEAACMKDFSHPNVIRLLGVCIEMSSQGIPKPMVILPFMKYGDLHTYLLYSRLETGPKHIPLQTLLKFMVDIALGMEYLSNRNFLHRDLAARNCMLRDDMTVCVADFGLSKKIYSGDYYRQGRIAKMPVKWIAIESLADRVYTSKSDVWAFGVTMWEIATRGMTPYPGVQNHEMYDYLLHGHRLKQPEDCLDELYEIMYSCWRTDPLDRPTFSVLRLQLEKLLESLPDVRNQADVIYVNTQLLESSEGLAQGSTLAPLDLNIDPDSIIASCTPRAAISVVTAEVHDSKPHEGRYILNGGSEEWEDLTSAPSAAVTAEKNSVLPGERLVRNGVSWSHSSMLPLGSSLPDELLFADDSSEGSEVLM

inhibition [1]	inhibition [2]	inhibition [3] [%]	SMILES
-2% and -1%	0% and -2%	72	O=S(=O)(CCNCc1ccc(-c2ccc3ncnc(Nc4ccc(OCc5cccc(F)c5)c(Cl)c4)c3c2)o1)c1ccccc1
-1% and 0%	-1% and -4%	5	Cc1ccc2c(-c3ccnc(Nc4ccccc4)n3)c(-c3ccc(F)cc3)nn2n1
1% and 3%	-1% and -5%	-3	CCCN(CCS(C)(=O)=O)Cc1ccc(-c2ccc3ncnc(Nc4ccc(OCc5cccc(F)c5)c(Cl)c4)c3c2)o1
65%	-1% and 0%	-8	NS(=O)(=O)c1ccc(N/N=C2\C(=O)Nc3ccc(C(=O)NCc4ccncc4)cc32)cc1
94%	0% and -1%	0	CC(C)COC(=O)c1ccc2c(c1)/C(=C/Nc1ccc(S(N)(=O)=O)cc1)C(=O)N2
15% and 11%	-4% and -10%	32	CC(C)c1ccc(Nc2nccc(-c3cnn4ncccc34)n2)cc1
4% and 3%	-2% and -1%	-1	NS(=O)(=O)c1ccc(Nc2cc(-c3ccc(O)c(F)c3)n[nH]2)cc1
31%	-1% and -2%	-6	CCn1c(-c2nonc2N)nc2cnc(Oc3cccc(NC(=O)c4ccc(N(C)C)cc4)c3)cc21
13% and 11%	2%	0	COc1cc(C=NNc2ncnc3c2cnn3-c2ccccc2)ccc1O
-1% and 0%	-7% and -5%	-3	COc1cccc(-n2ncc3c(N/N=C/c4cccc(F)c4)ncnc32)c1
0% and 1%	2%	3	CC1=C(C(=O)Nc2ccc3[nH]ncc3c2)C(c2ccc(Cl)c(Cl)c2)CC(=O)N1 (stereo not given)
27%	-1%	-4	NS(=O)(=O)c1ccc(N/N=C2\C(=O)Nc3ccc(C(=O)NCCCn4ccnc4)cc32)cc1
5% and 3%	-7%	-5	NS(=O)(=O)c1ccc(N/N=C2\C(=O)Nc3cccc(CCc4ccncc4)c32)cc1
-1% and 0%	2% and 0%	0	CN(C)CCCNc1nccc(-c2c(-c3ccc(F)cc3)nn3cc(C(F)(F)F)ccc23)n1
8% and 6%	-2% and 4%	5	CCCN1CCC(c2ccc(Nc3nc(Nc4cc(F)ccc4C(N)=O)c4cc[nH]c4n3)c(OC)c2)CC1
1% and 2%	-5% and -2%	62	O=C1NC(=O)C(c2ccc(Cl)cc2)=C1Nc1ccc(Cl)c(C(=O)O)c1
0%	-2% and -1%	-6	CS(=O)(=O)CCNCc1nc(-c2ccc3ncnc(Nc4ccc(OCc5cccc(C(F)(F)F)c5)cc4)c3c2)cs1
-2% and -1%	-4% and -5%	32	CCn1c(-c2nonc2N)nc2ccncc21
1% and 0%	1% and -3%	-2	COc1cccc(-n2ncc3c(N/N=C/c4ccc(F)cc4)ncnc32)c1
0% and -1%	-4%	0	c1ccc(Nc2ncc(-c3ccccc3)o2)cc1

inhibition [1]	inhibition [2]	inhibition [3] [%]	SMILES
-3%	-4%	1	CN1CCC(C(=O)Nc2n[nH]c3nnc(-c4ccccc4)cc23)CC1
19% and 16%	-7% and -9%	43	Nc1ncnc2occ(-c3ccc(NC(=O)Nc4cccc(C(F)(F)F)c4)cc3)c12
2% and 4%	-2% and 0%	5	C[C@@H](Oc1cc(-n2cnc3ccc(OCC4CCN(C)CC4)cc32)sc1C(N)=O)c1ccccc1C(F)(F)F
51% and 52%	0% and -2%	5	COC(=O)c1ccc2c(c1)C(=Cc1cc(Br)c(O)c(Br)c1)C(=O)N2
1% and -3%	1%	89	CS(=O)(=O)CCNCc1ccc(-c2ccc3ncnc(Nc4ccc(OCc5ccccc5)c(Cl)c4)c3c2)o1
-1% and 1%	2%	-7	O=C(Nc1n[nH]c2nnc(-c3cccnc3)cc12)C1CC1
-2% and -1%	0% and -2%	7	Cc1nnc(-c2ccc(C)c(-c3ccc(C(=O)Nc4cccc(C#N)c4)cc3)c2)o1
17% and 13%	15% and 0%	68	COc1cc(Nc2ncc(-c3ccccc3)o2)cc(OC)c1OC
0% and -3%	4% and 0%	2	COc1cc(/C=N/Nc2ncnc3c2cnn3C(C)C)ccc1O
21% and 20%	-1% and -5%	5	COc1ccc2[nH]c3c4[nH]c5ccc(OC)cc5c4c4c(c3c2c1)C(=O)NC4=O
-5% and 0%	1% and 4%	0	O=C(NCC1CC1)c1ccc(-c2cccc(C(=O)NC3CC3)c2)cc1
2%	-6% and -2%	-3	NCc1ccc(-n2c(-c3nonc3N)nc3cnccc32)cc1
-4% and 2%	-5%	-2	Fc1ccc(-c2nn3ccccc3c2-c2ccncc2)cc1
11% and 21%	-3% and 2%	48	Nc1nonc1-c1nc2cnccc2n1C1CC1
44% and 46%	-2%	-6	CCn1c(-c2nonc2N)nc2c(C#CC(C)(C)O)nc(OCCNC)cc21
0% and 1%	-3% and 0%	-1	CCn1cc(-c2ccnc3[nH]ccc23)c(-c2cccc(NC(=O)Nc3ccc(OCc4ccccc4)cc3)c2)n1
-3% and -4%	-7% and -6%	-6	CCc1ccc(Oc2nccc(-c3c(-c4ccc(F)cc4)ncn3C3CCNCC3)n2)cc1
1% and 0%	-3% and 4%	-4	COc1cccc(-n2cnc3c(N/N=C/c4ccncc4)ncnc32)c1
2% and 5%	2% and -2%	101	CN(c1ccc(NC(=O)NCCN2CCOCC2)cc1)c1ccnc(Nc2ccc(CS(C)(=O)=O)cc2)n1
3% and 1%	-1% and -3%	-5	CNC(=O)c1cncc(/C=C/c2ccccc2C)c1
